Patent US5948436A, “Pharmaceutical composition” (Abbott Laboratories, priority 1995, dated 1999)

Columns and labels:
[1] = Oral bioavailability studies in dogs (AUC after oral vs. intravenous dose); design: species or system dog (beagle dogs, mixed sexes); conditions: dog, in vivo, 5 mg/kg
Method: Each dog received a single solid dosage form corresponding to a 5 mg/kg dose of the drug.

HIV-1 protease = HIV-1 protease (HIV-1 M:B_HXB2R, UniProt P04585); assay type: biochemical
HIV-2 protease = test: Inhibition of HIV-2 protease; assay type: biochemical

bioavailability [1] [%]	SMILES	inhibition of HIV-1 protease (HIV-1 protease)	inhibition of HIV-2 protease (HIV-2 protease)
< 2	CC(C)c1nc(CN(C)C(=O)N[C@H](C(=O)N[C@@H](Cc2ccccc2)C[C@H](O)[C@H](Cc2ccccc2)NC(=O)OCc2cncs2)C(C)C)cs1 [compound III, (2S,3S,5S)-5-(N-(N-((N-Methyl-N-((2-isopropyl-4-thiazolyl)methyl)-amino)carbonyl)valinyl)amino)-2-(N-((5-thiazolyl)methoxycarbonyl)amino)-1,6-diphenyl-3-hydroxyhexane]		
	CC(C)c1nc(CN(C)C(=O)NC(C(=O)NC(Cc2ccccc2)CC(O)C(Cc2ccccc2)NC(=O)OCc2cncs2)C(C)C)cs1 (stereo not drawn) [formula II]	especially effective	especially effective
